Source: patent US10526327B2, “Histone demethylase inhibitors” (CELGENE QUANTICEL RESEARCH, INC., priority 2013, dated 2020)

Columns and labels:
Jarid1B = target: T1, Jarid1B (Homo sapiens, UniProt Q9UGL1); assay: Jarid1B in vitro enzyme inhibition assay (TR-FRET); assay type: biochemical
T1 construct: purchased BPS Bioscience or custom made by MolecularThroughput 50121
T1 sequence (Q9UGL1 2-751): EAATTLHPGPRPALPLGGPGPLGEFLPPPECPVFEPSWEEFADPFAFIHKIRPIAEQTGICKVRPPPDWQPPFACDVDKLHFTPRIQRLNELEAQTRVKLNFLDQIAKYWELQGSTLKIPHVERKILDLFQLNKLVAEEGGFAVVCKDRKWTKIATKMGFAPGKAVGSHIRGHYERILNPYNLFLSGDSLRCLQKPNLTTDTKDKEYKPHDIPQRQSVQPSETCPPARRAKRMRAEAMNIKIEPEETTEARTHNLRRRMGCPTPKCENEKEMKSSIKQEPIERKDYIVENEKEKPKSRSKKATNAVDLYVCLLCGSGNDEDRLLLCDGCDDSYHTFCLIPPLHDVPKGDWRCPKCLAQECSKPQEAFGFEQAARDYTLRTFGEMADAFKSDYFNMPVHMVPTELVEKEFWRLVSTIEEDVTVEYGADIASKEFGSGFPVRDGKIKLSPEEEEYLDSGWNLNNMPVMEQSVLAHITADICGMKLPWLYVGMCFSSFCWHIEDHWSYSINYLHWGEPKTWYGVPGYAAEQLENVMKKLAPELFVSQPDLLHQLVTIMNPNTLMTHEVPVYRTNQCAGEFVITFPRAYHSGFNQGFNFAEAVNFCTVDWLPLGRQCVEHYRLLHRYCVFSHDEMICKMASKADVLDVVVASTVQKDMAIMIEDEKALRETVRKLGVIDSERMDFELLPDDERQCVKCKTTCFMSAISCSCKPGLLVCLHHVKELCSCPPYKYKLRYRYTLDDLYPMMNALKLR
Outline: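 Jarid1B (AA 2-751, baculovirus-expressed) at 0.8 nM with 300 nM biotin-H3K4me3 peptide and 2 μM α-ketoglutarate in HEPES pH 7.3 with ascorbate and Fe(II), 30 min at room temperature. Stopped with EDTA; H3K4me1-2 product detected by TR-FRET (665/615 ratio) and IC50 fitted from 11-point dilutions.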

KDM5A/B = assay: In vitro cell-based assay: immuno-blot quantification of tri-methyl H3K4 in ZR-75-1 breast cancer cells; conditions: 72 hours, tri-methyl H3K4 level relative to GAPDH, percent of DMSO, read-out: Cellular IC50
Outline: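 ZR-75-1 breast cancer cells treated 72 h with 11-point compound dilutions (1250 μM to 10 nM). H3K4me3 quantified by infrared immunoblot densitometry, normalized to GAPDH and expressed as percent of DMSO control; relative IC50 from curve fit.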

Q: For `CC(C)Oc1nc(O)c2ccncc2n1` [Example 1, 2-propan-2-yloxy-3H-pyrido[3,4-d]pyrimidin-4-one], which IC50 (Jarid1B) is on record?
A: Its IC50 is 0.1 to 1 µM.

Q: How did the IC50 (Jarid1B) turn out when `CCOc1nc(O)c2ccncc2n1` [Example 2, 2-ethoxypyrido[3,4-d]pyrimidin-4-ol] was run?
A: The IC50 was no more than 0.1 µM.

Q: And the IC50 (KDM5A/B)?
A: The IC50 was greater than 10 µM.

Q: How did the IC50 (Jarid1B) turn out when `Oc1nc(OCCOCC(F)(F)F)nc2cnccc12` [Example 23, 2-[2-(2,2,2-trifluoroethoxy)ethoxy]pyrido[3,4-d]pyrimidin-4-ol] was run?
A: Its IC50 is 0.1 to 1 µM.

Q: What does the source list for `CC(C)(O)CCOc1nc(O)c2ccncc2n1` [Example 24, 2-(3-hydroxy-3-methylbutoxy)pyrido[3,4-d]pyrimidin-4-ol]?
A: IC50 (Jarid1B): ≤ 0.1 µM; IC50 (KDM5A/B): > 10 µM

Q: For `CC(CO)COc1nc(O)c2ccncc2n1` (stereo not drawn) [Example 25, 2-(3-hydroxy-2-methylpropoxy)pyrido[3,4-d]pyrimidin-4-ol], which IC50 (Jarid1B) is on record?
A: The IC50 was 0.1 to 1 µM.

Q: For `Oc1nc(OCC2CCCO2)nc2cnccc12` (stereo not drawn) [Example 26, 2-(oxolan-2-ylmethoxy)pyrido[3,4-d]pyrimidin-4-ol], which IC50 (Jarid1B) is on record?
A: Its IC50 is 1 to 10 µM.

Q: `Oc1nc(OCC2CCOC2)nc2cnccc12` (stereo not drawn) [Example 27, 2-(oxolan-3-ylmethoxy)pyrido[3,4-d]pyrimidin-4-ol] was tested. Which IC50 (Jarid1B) did it give?
A: The IC50 was 0.1 to 1 µM.

Q: `CC(=O)N(C)CCOc1nc(O)c2ccncc2n1` [Example 28, N-[2-(4-hydroxypyrido[3,4-d]pyrimidin-2-yl)oxyethyl]-N-methylacetamide] was tested. Which IC50 (Jarid1B) did it give?
A: The IC50 was 0.1 to 1 µM.

Q: Which IC50 (Jarid1B) does the source give for `CC(C)OCCOc1nc(O)c2ccncc2n1` [Example 29, 2-(2-propan-2-yloxyethoxy)pyrido[3,4-d]pyrimidin-4-ol] here?
A: Its IC50 is 0.1 to 1 µM.

Q: With `Oc1nc(OCCOCc2ccccc2)nc2cnccc12` [Example 30, 2-(2-phenylmethoxyethoxy)pyrido[3,4-d]pyrimidin-4-ol] as the compound, how does the IC50 (Jarid1B) read?
A: Its IC50 is 0.1 to 1 µM.

Q: For `O=C(NCCOc1nc(O)c2ccncc2n1)c1ccccc1` [Example 31, N-[2-(4-hydroxypyrido[3,4-d]pyrimidin-2-yl)oxyethyl]benzamide], which IC50 (Jarid1B) is on record?
A: Its IC50 is no more than 0.1 µM.

Q: `N#Cc1cccc(COc2nc(O)c3ccncc3n2)c1` [Example 32, 3-[(4-hydroxypyrido[3,4-d]pyrimidin-2-yl)oxymethyl]benzonitrile] was tested. Which IC50 (Jarid1B) did it give?
A: The IC50 was 0.1 to 1 µM.

Q: How did the IC50 (Jarid1B) turn out when `Cn1ccc(COc2nc(O)c3ccncc3n2)n1` [Example 33, 2-[(1-methylpyrazol-3-yl)methoxy]pyrido[3,4-d]pyrimidin-4-ol] was run?
A: The IC50 was 1 to 10 µM.

Q: Which results are given for `Oc1nc(Oc2ccccc2)nc2cnccc12` [Example 34, 2-phenoxypyrido[3,4-d]pyrimidin-4-ol]?
A: IC50 (Jarid1B): ≤ 0.1 µM; IC50 (KDM5A/B): > 10 µM

Q: Which IC50 (Jarid1B) does the source give for `Oc1nc(OCc2ccccc2C(F)(F)F)nc2cnccc12` [Example 177, 2-{[2-(trifluoromethyl)phenyl]methoxy}pyrido[3,4-d]pyrimidin-4-ol] here?
A: The IC50 was 1 to 10 µM.

Q: How did the IC50 (Jarid1B) turn out when `Oc1nc(OCc2ccccc2F)nc2cnccc12` [Example 178, 2-[(2-fluorophenyl)methoxy]pyrido[3,4-d]pyrimidin-4-ol] was run?
A: The IC50 was 1 to 10 µM.

Q: With `Oc1nc(OCc2cccc(F)c2)nc2cnccc12` [Example 179, 2-[(3-fluorophenyl)methoxy]pyrido[3,4-d]pyrimidin-4-ol] as the compound, how does the IC50 (Jarid1B) read?
A: The IC50 was 1 to 10 µM.

Q: Which IC50 (Jarid1B) does the source give for `Oc1nc(OCc2ccc(F)cc2)nc2cnccc12` [Example 180, 2-[(4-fluorophenyl)methoxy]pyrido[3,4-d]pyrimidin-4-ol] here?
A: The IC50 was 1 to 10 µM.

Q: With `Oc1nc(OCc2cccc(F)c2F)nc2cnccc12` [Example 181, 2-[(2,3-difluorophenyl)methoxy]pyrido[3,4-d]pyrimidin-4-ol] as the compound, how does the IC50 (Jarid1B) read?
A: Its IC50 is 1 to 10 µM.

Q: Which IC50 (Jarid1B) does the source give for `Oc1nc(OCc2cc(F)ccc2F)nc2cnccc12` [Example 182, 2-[(2,5-difluorophenyl)methoxy]pyrido[3,4-d]pyrimidin-4-ol] here?
A: The IC50 was 1 to 10 µM.

Q: For `Oc1nc(OCc2c(F)cccc2F)nc2cnccc12` [Example 183, 2-[(2,6-difluorophenyl)methoxy]pyrido[3,4-d]pyrimidin-4-ol], which IC50 (Jarid1B) is on record?
A: Its IC50 is 1 to 10 µM.

Q: Which IC50 (Jarid1B) does the source give for `Oc1nc(OCc2cccc3ccccc23)nc2cnccc12` [Example 184, 2-(naphthalen-1-ylmethoxy)pyrido[3,4-d]pyrimidin-4-ol] here?
A: The IC50 was 1 to 10 µM.

Q: With `Oc1nc(OCc2ccccc2-c2ccccc2)nc2cnccc12` [Example 185, 2-[(2-phenylphenyl)methoxy]pyrido[3,4-d]pyrimidin-4-ol] as the compound, how does the IC50 (Jarid1B) read?
A: Its IC50 is 1 to 10 µM.

Q: With `Oc1nc(OCc2cccc(-c3ccccc3)c2)nc2cnccc12` [Example 186, 2-[(3-phenylphenyl)methoxy]pyrido[3,4-d]pyrimidin-4-ol] as the compound, how does the IC50 (Jarid1B) read?
A: The IC50 was 1 to 10 µM.

Q: For `Oc1nc(OCc2ccc3ccccc3c2)nc2cnccc12` [Example 187, 2-(naphthalen-2-ylmethoxy)pyrido[3,4-d]pyrimidin-4-ol], which IC50 (Jarid1B) is on record?
A: The IC50 was 1 to 10 µM.

Q: How did the IC50 (Jarid1B) turn out when `Oc1nc(OCC2CCCc3ccccc32)nc2cnccc12` (stereo not drawn) [Example 188, 2-(1,2,3,4-tetrahydronaphthalen-1-ylmethoxy)pyrido[3,4-d]pyrimidin-4-ol] was run?
A: Its IC50 is 0.1 to 1 µM.

Q: Which IC50 (Jarid1B) does the source give for `Oc1nc(OC2Cc3ccccc3C2)nc2cnccc12` [Example 189, 2-(2,3-dihydro-1H-inden-2-yloxy)pyrido[3,4-d]pyrimidin-4-ol] here?
A: The IC50 was 0.1 to 1 µM.

Q: How did the IC50 (Jarid1B) turn out when `Oc1nc(OCC2CCc3ccccc32)nc2cnccc12` (stereo not drawn) [Example 190, 2-(2,3-dihydro-1H-inden-1-ylmethoxy)pyrido[3,4-d]pyrimidin-4-ol] was run?
A: The IC50 was 0.1 to 1 µM.

Q: For `Oc1nc(OCC2CCc3ccccc3C2)nc2cnccc12` (stereo not drawn) [Example 191, 2-(1,2,3,4-tetrahydronaphthalen-2-ylmethoxy)pyrido[3,4-d]pyrimidin-4-ol], which IC50 (Jarid1B) is on record?
A: Its IC50 is 0.1 to 1 µM.

Q: How did the IC50 (Jarid1B) turn out when `Oc1nc(OC2CCc3ccccc32)nc2cnccc12` (stereo not drawn) [Example 192, 2-(2,3-dihydro-1H-inden-1-yloxy)pyrido[3,4-d]pyrimidin-4-ol] was run?
A: The IC50 was 1 to 10 µM.

Q: With `Oc1nc(OCc2coc3ccccc23)nc2cnccc12` [Example 193, 2-(1-benzofuran-3-ylmethoxy)pyrido[3,4-d]pyrimidin-4-ol] as the compound, how does the IC50 (Jarid1B) read?
A: Its IC50 is 0.1 to 1 µM.

Q: Which IC50 (Jarid1B) does the source give for `Oc1nc(OCC2COc3ccccc32)nc2cnccc12` (stereo not drawn) [Example 194, 2-(2,3-dihydro-1-benzofuran-3-ylmethoxy)pyrido[3,4-d]pyrimidin-4-ol] here?
A: The IC50 was 1 to 10 µM.

Q: For `Oc1nc(OCC2CCOc3ccccc32)nc2cnccc12` (stereo not drawn) [Example 195, 2-(3,4-dihydro-2H-1-benzopyran-4-ylmethoxy)pyrido[3,4-d]pyrimidin-4-ol], which IC50 (Jarid1B) is on record?
A: The IC50 was 0.1 to 1 µM.

Q: How did the IC50 (Jarid1B) turn out when `Oc1nc(OC2CCCc3ccccc32)nc2cnccc12` (stereo not drawn) [Example 196, 2-(1,2,3,4-tetrahydronaphthalen-1-yloxy)pyrido[3,4-d]pyrimidin-4-ol] was run?
A: The IC50 was 1 to 10 µM.

Q: Which IC50 (Jarid1B) does the source give for `Oc1nc(OC2CCOc3ccccc32)nc2cnccc12` (stereo not drawn) [Example 197, 2-(3,4-dihydro-2H-1-benzopyran-4-yloxy)pyrido[3,4-d]pyrimidin-4-ol] here?
A: The IC50 was 0.1 to 1 µM.

Q: For `Cn1cnc(-c2nccc3c(=O)[nH]cnc23)c1` [Example 198, 8-(1-methylimidazol-4-yl)-3H-pyrido[3,4-d]pyrimidin-4-one], which IC50 (Jarid1B) is on record?
A: The IC50 was 0.1 to 1 µM.
